{
  "source": "patent US4774252A",
  "about": "“Benzisoselenazolonyl derivatives and processes for the treatment of rheumatic disease” (priority 1985, dated 1988)",
  "key": {"[1]": {"test_system": "Cobra-Venom-Factor (CVF)-oedema", "assay": "CVF-oedema test (inflammation-inhibiting activity)", "format": "in vivo", "settings": "po, read-out: ED50 values in CVF-oedema"}, "[2]": {"test_system": "CVF-oedema, carragenine-test", "settings": "S. Leyck et al., Agents and Actions 13, 437-438 (1983); cited from earlier work"}},
  "data": [
    {"smiles": "CC(C)C(C(=O)O)n1[se]c2ccccc2c1=O", "note": "(racemic) [DL-2-(1,2-Benzisoselenazole-3(2H)-one-2-yl)-3-methylbutyric acid]", "values": [
      {"measurement": "ED50", "setting": "[1]", "value": 5, "unit": "mg/kg"}
    ]},
    {"smiles": "c1ccc([C@H]2CN3CCSC3=N2)cc1", "note": "[levamisole]", "values": [
      {"measurement": "inhibiting effect in CVF-oedema-test as compared with carragenine-test", "setting": "[2]", "value": "more significant inhibiting effect in CVF-oedema-test as in carragenine-test"}
    ]},
    {"smiles": "O=C1CCN(c2ccccc2)N1", "note": "[phenidone]", "values": [
      {"measurement": "inhibiting effect in CVF-oedema-test as compared with carragenine-test", "setting": "[2]", "value": "more significant inhibiting effect in CVF-oedema-test as in carragenine-test"}
    ]}
  ]
}
